Data as given in patent publication US20240092829A1, “PEPTIDE HAVING PROTECTIVE ACTIVITY AGAINST CELL DAMAGE CAUSED BY PARTICULATE MATTER, AND USES FOR SAME” (CAREGEN CO., LTD., priority 2020, published 2024).
Peptide text beside a SMILES is read from it.

Experiments:
[1] = tested on: cytochrome P450; experiment: Cytochrome P450 activity in HaCaT cells (P450-Glo Assay kit); assay type: cell-based; details: HaCaT human keratinocytes; peptide pretreatment 1 hour at 20, 100, 200 μM; then 50 μg/cm^2 urban particulate matter 24 hours; FIG. 3
From the text: When polyaromatic hydrocarbons (PAHs) present in particulate matter penetrate into cells and bind to AHR, it promotes nuclear translocation of AHR. It is known that the AHR translocated into the nucleus forms a complex AHR/ARNT with an AHR nuclear translocator (ARNT), and this complex act as a transcription factor to promote the expression of cytochrome P450 (CYPs). In order to confirm the effect of the synthesized peptide in inhibiting cell damage caused by particulate matter, an experiment was performed for confirming whether the peptide inhibits the activity of cytochrome P450 after the cells were treated with particulate matter.
(§1) First, HaCaT cells, which are human keratinocytes, were seeded into a 96-well plate at a density of 1×10^4 cells/well. After overnight incubation, the media were replaced with serum-free media. The keratinocytes, HaCaT were pretreated with the synthesized peptides for 1 hour at each concentration (20 μM, 100 μM, and 200 μM). Then, the cells were treated with 50 μg/cm^2 of urban particulate matter (Sigma, NIST1648A) for 24 hours. After the keratinocytes were collected, the activity of cytochrome P450 was measured using P450-Glo™ Assay kit (Promega).

[2] = tested on: cytochrome P450; experiment: Cytochrome P450 activity in A549 cells (P450-Glo Assay kit); assay type: cell-based; details: A549 human alveolar epithelial cells; peptide pretreatment 1 hour at 20, 100, 200 μM; then 50 μg/cm^2 urban particulate matter 24 hours; FIG. 4
Experimental: In addition, in order to confirm whether the peptide of the present invention can suppress respiratory damage caused by particulate matter, an experiment for measuring the activity of cytochrome P450 was also performed on A549 cells, which are human alveolar epithelial cells.
as §1, with “human alveolar epithelial” for “HaCaT”, “A549 cells” for “which are human keratinocytes,”, “1.2×10^4” for “1×10^4”, “alveolar epithelial cells, A549 cells” for “keratinocytes, HaCaT”, “treated cells” for “keratinocytes”

SMILES: CSCC[C@H](NC(=O)[C@H](Cc1ccc(O)cc1)NC(=O)[C@@H](N)Cc1c[nH]c2ccccc12)C(=O)O [SEQ ID NO: 1, Trp Tyr Met] (H-Trp-Tyr-Met-OH; N-terminus and C-terminus assumed)
- activity of cytochrome P450 increased by the treatment of particulate matter [1]: reduced
- activity of cytochrome P450 increased by the treatment of particulate matter [2]: reduced
